Conditions: 1.0% DMSO, 24-hour incubation at ambient temperature, maximum theoretical 100 μM; for pH 2 solubility: 0.1N HCl, first value of the cell; for pH 7 solubility: 1×PBS buffer (pH 7.4), second value of the cell

Compound	pH 2 solubility	pH 7 solubility
CC(C)(C#Cc1ccc(-c2ccc(Cl)c3c(N(C(=O)OCCN4CCOCC4)S(C)(=O)=O)nn(CC(F)(F)F)c23)c([C@H](Cc2cc(F)cc(F)c2)NC(=O)Cn2nc(C(F)(F)F)c3c2C(F)(F)[C@@H]2C[C@H]32)n1)S(C)(=O)=O [Compound 114, 2-morpholinoethyl (4-chloro-7-(2-((S)-1-(2-((3bS,4aR)-5,5-difluoro-3-(trifluoromethyl)-3b,4,4a,5-tetrahydro-1H-cyclopropa[3,4]cyclopenta[1,2-c]pyrazol-1-yl)acetamido)-2-(3,5-difluorophenyl)ethyl)-6-(3-methyl-3-(methylsulfonyl)but-1-yn-1-yl)pyridin-3-yl)-1-(2,2,2-trifluoroethyl)-1H-indazol-3-yl)(methylsulfonyl)carbamate]	24 μM	1 μM
CC(C)(C#Cc1ccc(-c2ccc(Cl)c3c(N(C(=O)OCOC(=O)/C=C/C(=O)O)S(C)(=O)=O)nn(CC(F)(F)F)c23)c([C@H](Cc2cc(F)cc(F)c2)NC(=O)Cn2nc(C(F)(F)F)c3c2C(F)(F)[C@@H]2C[C@H]32)n1)S(C)(=O)=O [Compound 93, (E)-4-((((4-chloro-7-(2-((S)-1-(2-((3bS,4aR)-5,5-difluoro-3-(trifluoromethyl)-3b,4,4a,5-tetrahydro-1H-cyclopropa[3,4]cyclopenta[1,2-c]pyrazol-1-yl)acetamido)-2-(3,5-difluorophenyl)ethyl)-6-(3-methyl-3-(methylsulfonyl)but-1-yn-1-yl)pyridin-3-yl)-1-(2,2,2-trifluoroethyl)-1H-indazol-3-yl)(methylsulfonyl)carbamoyl)oxy)methoxy)-4-oxobut-2-enoic acid]	1 μM	22 μM
CC(C)(C#Cc1ccc(-c2ccc(Cl)c3c(N(C(=O)NCCNC(=O)C(=O)O)S(C)(=O)=O)nn(CC(F)(F)F)c23)c([C@H](Cc2cc(F)cc(F)c2)NC(=O)Cn2nc(C(F)(F)F)c3c2C(F)(F)[C@@H]2C[C@H]32)n1)S(C)(=O)=O [Compound 77, 2-((2-(3-(4-chloro-7-(2-((S)-1-(2-((3bS,4aR)-5,5-difluoro-3-(trifluoromethyl)-3b,4,4a,5-tetrahydro-1H-cyclopropa[3,4]cyclopenta[1,2-c]pyrazol-1-yl)acetamido)-2-(3,5-difluorophenyl)ethyl)-6-(3-methyl-3-(methylsulfonyl)but-1-yn-1-yl)pyridin-3-yl)-1-(2,2,2-trifluoroethyl)-1H-indazol-3-yl)-3-(methylsulfonyl)ureido)ethyl)amino)-2-oxoacetic acid]	21 μM	1 μM
CC(C)(C#Cc1ccc(-c2ccc(Cl)c3c(N(C(=O)N[C@@](C)(CC(=O)O)C(=O)O)S(C)(=O)=O)nn(CC(F)(F)F)c23)c([C@H](Cc2cc(F)cc(F)c2)NC(=O)Cn2nc(C(F)(F)F)c3c2C(F)(F)[C@@H]2C[C@H]32)n1)S(C)(=O)=O [Compound 65, (S)-2-(3-(4-chloro-7-(2-((S)-1-(2-((3bS,4aR)-5,5-difluoro-3-(trifluoromethyl)-3b,4,4a,5-tetrahydro-1H-cyclopropa[3,4]cyclopenta[1,2-c]pyrazol-1-yl)acetamido)-2-(3,5-difluorophenyl)ethyl)-6-(3-methyl-3-(methylsulfonyl)but-1-yn-1-yl)pyridin-3-yl)-1-(2,2,2-trifluoroethyl)-1H-indazol-3-yl)-3-(methylsulfonyl)ureido)-2-methylsuccinic acid]	1 μM	52 μM
CC(C)(C#Cc1ccc(-c2ccc(Cl)c3c(N(C(=O)OCCOCCOCCO)S(C)(=O)=O)nn(CC(F)(F)F)c23)c([C@H](Cc2cc(F)cc(F)c2)NC(=O)Cn2nc(C(F)(F)F)c3c2C(F)(F)[C@@H]2C[C@H]32)n1)S(C)(=O)=O [Compound 107, 2-(2-(2-hydroxyethoxy)ethoxy)ethyl (4-chloro-7-(2-((S)-1-(2-((3bS,4aR)-5,5-difluoro-3-(trifluoromethyl)-3b,4,4a,5-tetrahydro-1H-cyclopropa[3,4]cyclopenta[1,2-c]pyrazol-1-yl)acetamido)-2-(3,5-difluorophenyl)ethyl)-6-(3-methyl-3-(methylsulfonyl)but-1-yn-1-yl)pyridin-3-yl)-1-(2,2,2-trifluoroethyl)-1H-indazol-3-yl)(methylsulfonyl)carbamate]	4 μM	1 μM
CC(C)(C#Cc1ccc(-c2ccc(Cl)c3c(N(C(=O)OCCOP(=O)(O)O)S(C)(=O)=O)nn(CC(F)(F)F)c23)c([C@H](Cc2cc(F)cc(F)c2)NC(=O)Cn2nc(C(F)(F)F)c3c2C(F)(F)[C@@H]2C[C@H]32)n1)S(C)(=O)=O [Compound 100, 2-(phosphonooxy)ethyl (4-chloro-7-(2-((S)-1-(2-((3bS,4aR)-5,5-difluoro-3-(trifluoromethyl)-3b,4,4a,5-tetrahydro-1H-cyclopropa[3,4]cyclopenta[1,2-c]pyrazol-1-yl)acetamido)-2-(3,5-difluorophenyl)ethyl)-6-(3-methyl-3-(methylsulfonyl)but-1-yn-1-yl)pyridin-3-yl)-1-(2,2,2-trifluoroethyl)-1H-indazol-3-yl)(methylsulfonyl)carbamate]	2 μM	100 μM

Continued, values first:

pH 2 solubility	pH 7 solubility	Compound
1 μM	9 μM	C[C@@H](CC(=O)O)OC(=O)N(c1nn(CC(F)(F)F)c2c(-c3ccc(C#CC(C)(C)S(C)(=O)=O)nc3[C@H](Cc3cc(F)cc(F)c3)NC(=O)Cn3nc(C(F)(F)F)c4c3C(F)(F)[C@@H]3C[C@H]43)ccc(Cl)c12)S(C)(=O)=O [Compound 120, (S)-3-(((4-chloro-7-(2-((S)-1-(2-((3bS,4aR)-5,5-difluoro-3-(trifluoromethyl)-3b,4,4a,5-tetrahydro-1H-cyclopropa[3,4]cyclopenta[1,2-c]pyrazol-1-yl)acetamido)-2-(3,5-difluorophenyl)ethyl)-6-(3-methyl-3-(methylsulfonyl)but-1-yn-1-yl)pyridin-3-yl)-1-(2,2,2-trifluoroethyl)-1H-indazol-3-yl)(methylsulfonyl)carbamoyl)oxy)butanoic acid]
2/2 μM	2/2 μM	CC(C)(C#Cc1ccc(-c2ccc(Cl)c3c(N(C(=O)C(N)=O)S(C)(=O)=O)nn(CC(F)(F)F)c23)c([C@H](Cc2cc(F)cc(F)c2)NC(=O)Cn2nc(C(F)(F)F)c3c2C(F)(F)[C@@H]2C[C@H]32)n1)S(C)(=O)=O [Compound 10, N1-(4-chloro-7-(2-((S)-1-(2-((3bS,4aR)-5,5-difluoro-3-(trifluoromethyl)-3b,4,4a,5-tetrahydro-1H-cyclopropa[3,4]cyclopenta[1,2-c]pyrazol-1-yl)acetamido)-2-(3,5-difluorophenyl)ethyl)-6-(3-methyl-3-(methylsulfonyl)but-1-yn-1-yl)pyridin-3-yl)-1-(2,2,2-trifluoroethyl)-1H-indazol-3-yl)-N1-(methylsulfonyl)oxalamide]
1 μM	9 μM	CC(C)(C#Cc1ccc(-c2ccc(Cl)c3c(N(C(=O)NCC(=O)O)S(C)(=O)=O)nn(CC(F)(F)F)c23)c([C@H](Cc2cc(F)cc(F)c2)NC(=O)Cn2nc(C(F)(F)F)c3c2C(F)(F)[C@@H]2C[C@H]32)n1)S(C)(=O)=O [Compound 72, ((4-chloro-7-(2-((S)-1-(2-((3bS,4aR)-5,5-difluoro-3-(trifluoromethyl)-3b,4,4a,5-tetrahydro-1H-cyclopropa[3,4]cyclopenta[1,2-c]pyrazol-1-yl)acetamido)-2-(3,5-difluorophenyl)ethyl)-6-(3-methyl-3-(methylsulfonyl)but-1-yn-1-yl)pyridin-3-yl)-1-(2,2,2-trifluoroethyl)-1H-indazol-3-yl)(methylsulfonyl)carbamoyl)glycine]
1 μM	9 μM	C[C@@H](O)[C@H](NC(=O)N(c1nn(CC(F)(F)F)c2c(-c3ccc(C#CC(C)(C)S(C)(=O)=O)nc3[C@H](Cc3cc(F)cc(F)c3)NC(=O)Cn3nc(C(F)(F)F)c4c3C(F)(F)[C@@H]3C[C@H]43)ccc(Cl)c12)S(C)(=O)=O)C(=O)O [Compound 61, ((4-chloro-7-(2-((S)-1-(2-((3bS,4aR)-5,5-difluoro-3-(trifluoromethyl)-3b,4,4a,5-tetrahydro-1H-cyclopropa[3,4]cyclopenta[1,2-c]pyrazol-1-yl)acetamido)-2-(3,5-difluorophenyl)ethyl)-6-(3-methyl-3-(methylsulfonyl)but-1-yn-1-yl)pyridin-3-yl)-1-(2,2,2-trifluoroethyl)-1H-indazol-3-yl)(methylsulfonyl)carbamoyl)-L-threonine]
1/1 μM	1/1 μM	CCOC(=O)C(=O)N(c1nn(CC(F)(F)F)c2c(-c3ccc(C#CC(C)(C)S(C)(=O)=O)nc3[C@H](Cc3cc(F)cc(F)c3)NC(=O)Cn3nc(C(F)(F)F)c4c3C(F)(F)[C@@H]3C[C@H]43)ccc(Cl)c12)S(C)(=O)=O [Compound 14, ethyl 2-(N-(4-chloro-7-(2-((S)-1-(2-((3bS,4aR)-5,5-difluoro-3-(trifluoromethyl)-3b,4,4a,5-tetrahydro-1H-cyclopropa[3,4]cyclopenta[1,2-c]pyrazol-1-yl)acetamido)-2-(3,5-difluorophenyl)ethyl)-6-(3-methyl-3-(methylsulfonyl)but-1-yn-1-yl)pyridin-3-yl)-1-(2,2,2-trifluoroethyl)-1H-indazol-3-yl)methylsulfonamido)-2-oxoacetate]
59 μM	14 μM	CN(CCCN)C(=O)N(c1nn(CC(F)(F)F)c2c(-c3ccc(C#CC(C)(C)S(C)(=O)=O)nc3[C@H](Cc3cc(F)cc(F)c3)NC(=O)Cn3nc(C(F)(F)F)c4c3C(F)(F)[C@@H]3C[C@H]43)ccc(Cl)c12)S(C)(=O)=O [Compound 79, N—((S)-1-(3-(3-(N-((3-aminopropyl)(methyl)carbamoyl)methylsulfonamido)-4-chloro-1-(2,2,2-trifluoroethyl)-1H-indazol-7-yl)-6-(3-methyl-3-(methylsulfonyl)but-1-yn-1-yl)pyridin-2-yl)-2-(3,5-difluorophenyl)ethyl)-2-((3bS,4aR)-5,5-difluoro-3-(trifluoromethyl)-3b,4,4a,5-tetrahydro-1H-cyclopropa[3,4]cyclopenta[1,2-c]pyrazol-1-yl)acetamide]

— patent publication US12404262B2 (priority 2021, dated 2025)
